# According to patent US20090047369A1, “Composition Comprising 4-Carbon Dicarboxlic Acids for Improvement of Memory Function” (Eubioslab Co., Ltd, priority 2006, published 2009):
# Key:
# [1] = administered for 1 week; Jpn J Psychiatry Neurol 1991; cited from earlier work
# [2] = test system: Sprague Dawley rats; experiment: Morris water maze test (escape time to hidden platform); assay type: in vivo
# Method: In the Morris water maze test, each of the test animals was given four swimming trials per session per day for 4-5 days. When the escape latency of the test animal, that is, the time for the test animal to reach a hidden platform 2 cm below the surface of water, was shortened to about 10±2 seconds during the repeat of the learning sessions, a probe test was performed after 24 hours one time for 60 seconds without the platform.
# In the present invention, the effect of formulated drugs on the improvement of learning and memory for spatial recognition of a normal test animal group (Sprague Dawley rats) was tested by administering the drugs to the test animals orally or through drinking water for 2, 3 or 4 weeks and performing a Morris water maze test at 2, 3 or 4 weeks after the drug administration.
# (§1) In the Morris water maze test, each of the test animals was given four swimming trials per session per day for 4-5 days. When the escape latency of the test animal, that is, the time for the test animal to reach a hidden platform 2 cm below the surface of water, became shorter than 10±2 seconds during the repeat of the learning sessions, a probe test was performed after 24 hours one time for 60 seconds without the platform. The probe test was performed by removing the platform from the swimming pool and observing the swimming behavior of the test animals. In the probe test, as measures of spatial working memory, the retention time and movement distance of the test animals in the same area of a quadrant region including the position in which the platform was present during the first learning period were analyzed and compared with those of the control group.
# Starting from 4 weeks of the administration, a Morris water maze test was performed at a given time point daily four times per day for 4 days to analyze the effect of each composition on the improvement of learning and memory for spatial recognition function of the test animals. As the test results are shown in FIG. 1(a) showing the escape time of each group.
# [3] = test system: Sprague Dawley rats; experiment: probe test after Morris water maze learning (platform removed); assay type: in vivo
# Method: as §1
# At 5 days, that is, after 24 hours when the escape time for the learned test animals to reach the platform became an average of 10±2 seconds, the platform was removed and a probe test was performed one time. The test results are shown in FIG. 1(b) to analyze an improvement in learning and memory for spatial recognition functions.
# [4] = test system: cerebral cortex; settings: normal persons; Saarma J. et al. 1975; cited from earlier work
# [5] = test system: ischemia-induced brain; settings: administered after hypoxia; Ann. Thorac. Surg. 1994; cited from earlier work
# [6] = fumaric acid 100 mg/kg with Tween80 100 mg/kg (FA100Tw100 group), drinking water 4 weeks, vs Tw50 control
smiles,measurement,setting,value
CN(C)CCCN1c2ccccc2CCc2ccccc21 [imipramine],antidepressant effect,[1],significant antidepressant effect
O=C(O)CCC(=O)O [succinic acid],learning ability in the Morris water maze test,"[2]; succinic acid 100 mg/kg with Span80 200 mg/kg (SA100Sp200 group), drinking water 3 weeks, session 4, P<0.001 vs DW control, Mann Whitney U test",significant increase in learning ability
same,working memory in the probe test,"[3]; succinic acid 100 mg/kg with Span80 200 mg/kg (SA100Sp200 group), drinking water 3 weeks, vs DW control",insignificant (P=0.089) improvement in working memory
"O=C(O)CCC(=O)O [SS, sodium succinate]",excitability of the cerebral cortex,[4],stabilizes the excitability of the cerebral cortex
O=C(O)/C=C/C(=O)O [fumaric acid],nerve protective effect,[5],nerve protective effects
same,improvement of learning (escape time),[2]; [6],significant (p<0.05) effect on the improvement of both learning and working memory
same,effect on the improvement of learning and memory,"[2]; fumaric acid given with Tween80 (FA50Tw50, FA100Tw100 groups) through drinking water 4 weeks, vs Tw50 control",dose-dependent effect on the improvement of learning and memory
same,improvement of working memory,[3]; [6],significant (p<0.05) effect on the improvement of both learning and working memory
"O=CCCC(=O)O [SSA, succinic semialdehyde, reference compound]",excitability of the cerebral cortex,[4],enhances the excitability of the cerebral cortex
